# Measurements from patent publication US20020183384A1, “Methods of treating nuclear factor-kappa B mediated diseases and disorders” (priority 2001, published 2002).
# Tested on: NF-κB mediated transcription
# Assay: NF-κB driven β-lactamase reporter assay in ECV-304 NF-κB.βlaZ cells (AURORA CCF2 fluorescence)
# Assay type: cell-based, human
# Conditions: 10 μM compound; ECV-304 NF-κB.βlaZ cells stimulated with 10 ng/mL TNF-α or 100 pg/mL IL-1β, 6 hours at 37° C.; inhibition of maximum blue/green ratio
# Method in brief: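 ECV-304 cells (clone 1E8) stably carrying a β-lactamase reporter driven by 5 HIV-1 NF-κB sites, plated in M-199 with 2% FBS, compound at 10 μM final. CCF2 read at 395 nm excitation, blue 460 nm/green 530 nm emission ratio; IC50 from dose-response curve.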
row,Structure (SMILES),Percent Inhibition at 10 μM
1,"CCCCCCC(C)OS(=O)(=O)NC(=O)Nc1c(C(C)C)cccc1C(C)C (stereo not drawn) [Example 94, Sulfamic acid, [[[2,6-bis(1-methylethyl)phenyl]amino]carbonyl]-, 1-methylheptyl ester,]",<10%
2,"CC(C)c1cccc(C(C)C)c1NC(=O)NS(=O)(=O)Nc1c(C(C)C)cccc1C(C)C [Example 7, Urea, N-[2 ,6-bis(1-methylethyl)phenyl]-N′-[[[2,6-bis(1-methylethyl)phenyl]-amino]sulfonyl]-]",37.04%
3,"CC(C)c1cccc(C(C)C)c1OS(=O)(=O)NC(=O)OCCOC(=O)NS(=O)(=O)Oc1c(C(C)C)cccc1C(C)C [Example 111, Carbamic acid, [[2,6-bis(1-methylethyl)phenoxy]sulfonyl]-, 1,2-ethanediyl ester]",<10%
4,"CC1(C)OCC(NC(=O)NS(=O)(=O)NC2COC(C)(C)OC2c2ccccc2)C(c2ccccc2)O1 (single isomer, unassigned) [Example 105, Urea, N-(2,2-dimethyl-4-phenyl-1,3-dioxan-5-yl)-N′-[[(2,2-dimethyl-4-phenyl-1,3-dioxan-5-yl)amino]sulfonyl]-, stereoisomer]",<10%

# Same assay, conditions: Homo sapiens, ECV-304, 6 h, 10 μM compound; ECV-304 NF-κB.βlaZ cells stimulated with 10 ng/mL TNF-α or 100 pg/mL IL-1β, 6 hours at 37° C.; inhibition of maximum blue/green ratio; read-out: Percent Inhibition at 10 μM
row,Structure (SMILES),inhibition at 10 µM
1,"COc1ccccc1CC(=O)NS(=O)(=O)Oc1c(C(C)C)cccc1C(C)C [Example 156, [(2-Methoxy-phenyl)-acetyl]-sulfamic acid 2,6-diisopropyl-phenyl ester]",< 10%
2,"CC(C)c1cccc(C(C)C)c1OS(=O)(=O)NC(=O)Cc1ccccc1C(F)(F)F [Example 158, [(2-Trifluoromethyl-phenyl)-acetyl]-sulfamic acid 2,6-diisopropyl-phenyl ester]",25.9%
3,"CC(C)c1cc(C(C)C)c(CC(=O)NS(=O)(=O)Oc2c(C(C)C)cc(NC(=O)[C@@H](N)CO)cc2C(C)C)c(C(C)C)c1 [Example 230, [2-(2,4,6-Triisopropyl-phenyl)-acetyl]-sulfamic acid 4-((S)-2-amino-3-hydroxy-propionylamino)-2,6-diisopropyl-phenyl ester; compound with trifluoro-acetic acid]",75.2%
4,"CC(C)c1cccc(C(C)C)c1OS(=O)(=O)NC(=O)CCc1ccccc1 [Example 176, (3-Phenyl-propionyl)-sulfamic acid 2,6-diisopropyl-phenyl ester]",< 10%
5,"CC(C)c1cccc(C(C)C)c1OS(=O)(=O)NC(=O)NC(c1ccccc1)(c1ccccc1)c1ccccc1 [Example 223, Sulfamic acid, [[(triphenylmethyl)amino]carbonyl]-, 2,6-bis(1-methylethyl)phenyl ester]",68.2%
6,"CCCCCCCCCCCCN(CCCCCCCCCCCC)S(=O)(=O)NC(=O)Nc1c(C(C)C)cccc1C(C)C [Example 76, Urea, N-[2,6-bis(1-methylethyl)phenyl]-N′-[(didodecylamino)sulfonyl]-]",< 10%
7,"CCCCCCCCCCCCOS(=O)(=O)NC(=O)Nc1c(C(C)C)cccc1C(C)C [Example 69, Sulfamic acid, [[[2,6-bis(1-methylethyl)phenyl]amino]carbonyl]-, dodecyl ester]",75.5%
8,"CC(C)c1cccc(C(C)C)c1OS(=O)(=O)NC(=O)OC12CC3CC(CC(C3)C1)C2 [Example 136, Carbamic acid, [[2,6-bis(1-methylethyl)phenoxy]sulfonyl]-, tricyclo[3.3.1.1^3,7]-dec-1-yl ester]",< 10%
9,"CC(C)c1cc(C(C)C)c(CC(=O)NS(=O)(=O)Oc2c(C(C)C)cc(NC(=O)C(N)Cc3c[nH]c4ccccc34)cc2C(C)C)c(C(C)C)c1 (stereo not drawn) [Example 204, [(2,4,6-Triisopropyl-phenyl)-acetyl]-sulfamic acid 4-[2-amino-3-(1H-indol-3-yl)-propionylamino]-2,6-diisopropyl-phenyl ester]",70%
10,"CC(C)c1cc(C(C)C)c(CC(=O)NS(=O)(=O)Oc2c(C(C)C)cc(NC(=O)CCN)cc2C(C)C)c(C(C)C)c1 [Example 220, [2-(2,4,6-Triisopropyl-phenyl)-acetyl]-sulfamic acid 4-(3-amino-propionylamino)-2,6-diisopropyl-phenyl ester; compound with trifluoro-acetic acid]",65.5%
11,"CCCCCCCCCCCCCCCCS(=O)(=O)NC(=O)Nc1c(C(C)C)cccc1C(C)C [Example 238, N-[2,6-bis(1-methylethyl)phenyl]-N′-(hexadecylsulfonyl)-urea]",12%
12,"CCCCCCCCCCCCCS(=O)(=O)NC(=O)Nc1c(C(C)C)cccc1C(C)C [Example 242, N-[2,6-bis(1-methylethyl)phenyl]-N′-(tridecylsulfonyl)urea]",< 10%
13,"CCC(C)C(C(=O)NS(=O)(=O)Oc1c(C(C)C)cccc1C(C)C)c1ccccc1 (stereo not drawn) [Example 167, (3-Methyl-2-phenyl-pentanoyl)-sulfamic acid 2,6-diisopropyl-phenyl ester]",40%
14,"CC(C)c1cc(C(C)C)c(CC(=O)NS(=O)(=O)Oc2c(C(C)C)cc(NS(C)(=O)=O)cc2C(C)C)c(C(C)C)c1 [Example 227, [(2,4,6-Triisopropyl-phenyl)-acetyl]-sulfamic acid 2,6-diisopropyl-4-methanesulfonylamino-phenyl ester]",77.3%
15,"CC(C)c1cc(C(C)C)c(CC(=O)NS(=O)(=O)Oc2c(C(C)C)cc(NC(=O)[C@@H](N)C(C)C)cc2C(C)C)c(C(C)C)c1 [Example 232, [2-(2,4,6-Triisopropyl-phenyl)-acetyl]-sulfamic acid 4-((S)-2-amino-3-methyl-butyrylamino)-2,6-diisopropyl-phenyl ester; compound with trifluoro-acetic acid]",76.9%
16,"CC(=O)OC(C(=O)NS(=O)(=O)Oc1c(C(C)C)cccc1C(C)C)c1c(C(C)C)cc(C(C)C)cc1C(C)C (stereo not drawn) [Example 154, Acetic acid 2-(2,6-diisopropyl-phenoxysulfonylamino)-2-oxo-1-(2,4,6-triisopropyl-phenyl)-ethyl ester]",77.7%
17,"Cc1cc(C(C)C)c(OS(=O)(=O)NC(=O)Cc2c(C(C)C)cc(C(C)C)cc2C(C)C)c(C(C)C)c1 [Example 210, [(2,4,6-Triisopropyl-phenyl)-acetyl]-sulfamic acid 2,6-diisopropyl-4-methyl-phenyl ester]",52.5%
18,"CCCCCCCCCCCCOC(=O)NS(=O)(=O)OCCCCCCCCCCCC [Example 61, Carbamic acid, [(dodecyloxy)sulfonyl]-, dodecyl ester]",27.4%
19,"CC(C)c1cccc(C(C)C)c1OS(=O)(=O)NC(=O)C1(c2ccc(N(C)C)cc2)CCCC1 [Example 211, [1-(4-Dimethylamino-phenyl)-cyclopentanecarbonyl]-sulfamic acid 2,6-diisopropyl-phenyl ester]",24.6%

# Same assay, conditions: Homo sapiens; 10 μM compound; ECV-304 NF-κB.βlaZ cells stimulated with 10 ng/mL TNF-α or 100 pg/mL IL-1β, 6 hours at 37° C.; inhibition of maximum blue/green ratio; read-out: Percent Inhibition at 10 μM
row,Structure (SMILES),inhibition at 10 µM
1,"Cc1cccc(C(C)(C)C)c1OC(=O)NS(=O)(=O)Oc1c(C(C)C)cccc1C(C)C [Example 137, Carbamic acid, [[2,6-bis(1-methylethyl)phenoxy]sulfonyl]-, 2-(1,1-dimethylethyl)-6-methylphenyl ester]",< 10%
2,"CC(C)c1cccc(C(C)C)c1NS(=O)(=O)NC(=O)Oc1c(C(C)C)cccc1C(C)C [Example 4, Carbamic acid, [[[2,6-bis(1-methylethyl)phenyl]amino]sulfonyl]-, 2,6-bis(1-methylethyl)phenyl ester]",35.3%
3,"CCCCCCCCCCN(CCCCCCCCCC)S(=O)(=O)NC(=O)Oc1c(C(C)(C)C)cc(C)cc1C(C)(C)C [Example 52, Carbamic acid, [(didecylamino)sulfonyl]-, 2,6-bis(1,1-dimethylethyl)-4-methylphenyl ester]",< 10%
4,"CCCCCCCCN(C)S(=O)(=O)NC(=O)Oc1c(C(C)(C)C)cc(C)cc1C(C)(C)C [Example 43, Carbamic acid, [(methyloctylamino)sulfonyl]-, 2,6-bis(1,1-dimethylethyl)-4-methylphenyl ester]",70.2%
5,"Cc1cc(C(C)(C)C)c(OC(=O)NS(=O)(=O)N(CCCN(C)C)CCCN(C)C)c(C(C)(C)C)c1 [Example 40, Carbamic acid, [[bis[3-(dimethylamino)propyl]amino]sulfonyl]-, 2,6-bis(1,1-dimethylethyl)-4-methylphenyl ester]",< 10%
6,"CC(C)c1cccc(C(C)C)c1OC(=O)NS(=O)(=O)N1CCc2ccccc21 [Example 72, Carbamic acid, [(2,3-dihydro-1H-indol-1-yl)sulfonyl]-, 2,6-bis(1-methylethyl)-phenyl ester]",14.1%
7,"CCCCCN(CCCCC)S(=O)(=O)NC(=O)Oc1c(C(C)C)cccc1C(C)C [Example 89, Carbamic acid, [(dipentylamino)sulfonyl]-, 2,6-bis(1-methylethyl)phenyl ester]",31.9%
8,"Cc1cc(C(C)(C)C)c(OC(=O)NS(=O)(=O)N(C(C)C)C(C)C)c(C(C)(C)C)c1 [Example 32, Carbamic acid, [[bis(1-methylethyl)amino]sulfonyl]-, 2,6-bis(1,1-dimethylethyl)-4-methylphenyl ester]",20.3%
9,"Cc1cccc(C)c1OS(=O)(=O)NC(=O)Oc1c(C(C)C)cccc1C(C)C [Example 98, Carbamic acid, [(2,6-dimethylphenoxy)sulfonyl]-, 2,6-bis(1-methylethyl)-phenyl ester]",< 10%
10,"CC(C)(C)c1cccc(C(C)(C)C)c1OC(=O)NS(=O)(=O)N(Cc1ccccc1)Cc1ccccc1 [Example 24, Carbamic acid, [[bis(phenylmethyl)amino]sulfonyl]-, 2,6-bis(1,1-dimethylethyl)-phenyl ester]",31%
